The values that follow come from paper PMC11513854, “De novo GTP synthesis is a metabolic vulnerability for the interception of brain metastases” (Cell Reports Medicine, 2024).

Each structure is given as a SMILES string.

The test system of data set [1] is normal brain cells. The data set can be described thus: Dose-response curves of control normal brain cells. The format is cell-based, human. As to conditions: 72-h treatment, same concentrations (below 10 μM). The source says:
PrestoBlue readout is normalized to vehicle-treated cells. Data are presented as mean ± SD from 4 technical replicates. (C) Assessment of cell viability of patient-derived BMICs treated with MPA or its vehicle. PrestoBlue readout is normalized to vehicle-treated cells, p < 0.0001. […] Sphere count normalized to vehicle-treated cells, p < 0.0001. (F and G) Percent wound closure of DMSO control vs. MPA-treated cells expressed as an average of replicates (n = 3) and images are taken at 10× magnification. Wound closure (represented by dotted white line) is measured using ImageJ on Incucyte-derived images, p values are indicated. Scale bars are 400 μm. See also Videos S1, S2, S3, and S4. Comparisons of cell viability, sphere formation, and wound closure were made via a two-tailed unpaired t test and data are presented as mean ± SD from 3 to 4 technical replicates. […]
Dose-response assays were conducted using the same protocol apart from drugs being plated using 2-fold serial dilutions (20 μM - 39 nM) as previously described.[66] The half maximal inhibitory concentration (IC50) is determined by plotting percent cell viability by the logarithmic concentration of drug. IC80 concentrations will be used for subsequent functional assays (cell proliferation, sphere formation), as determined by the following formula: ICF=100−F/F^1/H×IC50 where F = fraction of maximal response and H = hill slope.

For data set [2], the system named is patient-derived BMICs. Briefly: Pre-treatment PDX model, intracranial engraftment of lung-BMICs. The format is in vivo, mice. As to conditions: vs placebo. The source says:
We decided to focus primarily on lung-BM for our in vivo experiments because they account for over 50% of all BM cases. […] This phenotype was also recapitulated in a melanoma-BM PDX model (Figures S2A and S2B).
Comparisons were made via a two-tailed unpaired t test and data are presented as mean ± SD from 4 to 5 technical replicates. p value is indicated. (C) Schematic of experimental timeline. […] IVIS, in vivo imaging system. Comparisons were made via a two-tailed unpaired t test and data are presented as mean ± SD from 4 to 5 technical replicates. p value is indicated. […] Comparisons were made via a log rank (Mantel-Cox) test, p value is indicated. (G) Quantification of human cells in mouse brains by flow cytometry at the humane endpoint. […]
All experimental procedures involving animal work has been reviewed and approved by McMaster University Animal Research Ethics Board. […] Mice are monitored weekly for signs of illness until endpoint.
Bioluminescent imaging was performed using an IVIS Spectrum In Vivo Imaging System (PerkinElmer) as per the manufacturer’s instructions. Imaging and quantification of signals is controlled by the analysis software Living Image (Xenogen). […] Regions of interest were quantified by bioluminescent signal (photons per second) using Living Image software for a standardized comparison between images.

The subject of data set [3] is primary lung CRUK0748 cell line. Briefly: Orthotopic injection of CRUK0748, daily oral gavage treatment. The format is in vivo, mice. The conditions noted are these: 100 mg/kg daily oral gavage, vs placebo. The text has this:
Next, we injected mice orthotopically with the primary lung CRUK0748 cell line and treated them daily as described earlier (see Figure S3A).
All experimental procedures involving animal work has been reviewed and approved by McMaster University Animal Research Ethics Board. Non-obese diabetic-severe combined immunodeficient IL2r γ ^null (NSG) mice are used for all experiments. Equal numbers of male and female mice were used for all experiments. Healthy mice were 6–8 weeks at time of use. Mice are anesthetized by gas anesthesia using isoflurane (4% induction, 2.5% maintenance) before procedure. Cells were engineered to express firefly luciferase and were injected intracardially, orthotopically, or intracranially as previously described.[13]^,[14]^,[63]^,[64]^,[65] […] Mice are monitored weekly for signs of illness until endpoint.
Fig S3. MPA m ust cross the blood brain barrier to eff ectively slow the progression of BM over tim e, related to Figures 3 and 4. a, Mice were either orthotopically (intratho racically) or intracardiac injected with lung BMICs, […]
seven days post-injection by IVIS, (c), no significant reduction in tumor burden following t reatment completion […]
to placebo, but (f) had the same number of human cells detected in their brains following humane endpoint by flow cytometry. n.s. = not significant.
(1 picture or pasted object on this page, not shown here)

Turning to `COc1c(C)c2c(c(O)c1C/C=C(\C)CCC(=O)O)C(=O)OC2` [MPA, Mycophenolic acid], the “toxicity to normal brain cells” value in data set [1] was “nontoxic”. The brain tumor burden result in data set [2] (BMICs pre-treated at IC80, 2 weeks post-injection, IVIS) is “significantly reduced brain tumor burden”. Besides, the survival entry in data set [2] (BMICs pre-treated at IC80, intracranial engraftment) is “survived significantly longer”; in data set [3], “survived significantly longer”. Also, in data set [3] (humane endpoint, flow cytometry), the “number of human cells detected in mouse brains” value is on record as “no significant difference”.
